Data as given in US10336702B2, “Pharmaceutically active compounds” (BERGENBIO ASA, priority 2015, dated 2019).

Key:
[1] = molecular target: T1, Akt1 (Homo sapiens, UniProt P31749); assay: Akt activation assay (PDK1-mediated activation, LANCE Ultra crosstide TR-FRET), Akt1; format: biochemical; details: read-out: Biological Assay 1 IC50 (nM) Akt1
T1 construct: unspecified tag, removed (detagged) (cleaved yes); purchased SignalChem and Proteros (Akt1); Merck Millipore (PDK1) 14-452 (PDK1); none given for Akt1
In short: (§1)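 TR-FRET read-out (665/615 nm ratio) after Eu-anti-phospho-crosstide antibody, 1 h. Reaction: compound preincubated with Akt isoform, then 5 nM PDK1, lipid vesicles with 0.55 μM PtdIns(3,4,5)P3, 100 μM ATP, 100 nM crosstide, 30 min, EDTA stop. IC50 from 4-parameter equation.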

[2] = molecular target: T2, Akt3 (Homo sapiens, UniProt Q9Y243); assay: Akt activation assay (PDK1-mediated activation, LANCE Ultra crosstide TR-FRET), Akt3; format: biochemical; details: read-out: Biological Assay 1 IC50 (nM) Akt3
T2 construct: unspecified tag, removed (detagged) (cleaved yes); purchased SignalChem and Proteros (Akt3); Merck Millipore (PDK1) 14-452 (PDK1); none given for Akt3
In short: as §1

[3] = molecular target: T3, p-Akt2 in WM115 cells (Homo sapiens, UniProt P31751); assay: Phospho-Akt cellular SureFire assay, p-Akt2 in WM115 cells; format: cell-based; details: insulin stimulated, read-out: Biological Assay 2 IC50 (nM) Akt2 WM115
T3 construct: SureFire assays to detect cellular p-Akt1, p-Akt2 and p-Akt3 levels in WM115 cells (Akt2/3) and LNCaP cells (Akt1); endogenous in cells; host or cells: WM115 (ECACC 91061232), insulin-stimulated
In short: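 Readout is a bead-proximity SureFire assay pairing a pThr308 Akt antibody with a total Akt2 antibody, lysate and beads incubated 2 h plus 2 h at room temperature in the dark. Before lysis, serum-starved WM115 cells received 100 nM insulin (10 min), then test compound (15 min, 0.3% DMSO); IC50 by 4-parameter equation.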

[4] = molecular target: T4, p-Akt3 in WM115 cells (Homo sapiens, UniProt Q9Y243); assay: Phospho-Akt cellular SureFire assay, p-Akt3 in WM115 cells; format: cell-based; details: insulin stimulated, read-out: Biological Assay 2 IC50 (nM) Akt3 WM115
T4 construct: SureFire assays to detect cellular p-Akt1, p-Akt2 and p-Akt3 levels in WM115 cells (Akt2/3) and LNCaP cells (Akt1); endogenous in cells; host or cells: WM115 (ECACC 91061232), insulin-stimulated
In short: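 pThr308-Akt3 in lysates was quantified by bead-proximity SureFire detection, pairing a phospho-specific antibody with a total Akt3 antibody. Before lysis, WM115 cells in 0.1% FBS medium were treated for 15 min at 37 °C with compound (final DMSO 0.3%), following a 10 min stimulation with 100 nM insulin. IC50 was obtained by 4-parameter fitting.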

[5] = molecular target: T5, Akt2 (Homo sapiens, UniProt P31751); assay: Akt activation assay (PDK1-mediated activation, LANCE Ultra crosstide TR-FRET), Akt2; format: biochemical; details: read-out: Biological Assay 1 IC50 (nM) Akt2
T5 construct: unspecified tag, removed (detagged) (cleaved yes); purchased SignalChem and Proteros (Akt2); Merck Millipore (PDK1) 14-452 (PDK1); none given for Akt2
In short: as §1

[6] = molecular target: T6, p-Akt1 in LNCaP cells (Homo sapiens, UniProt P31749); assay: Phospho-Akt cellular SureFire assay, p-Akt1 in LNCaP cells; format: cell-based; details: read-out: Biological Assay 2 IC50 (nM) Akt1 LNCaP
T6 construct: SureFire assays to detect cellular p-Akt1, p-Akt2 and p-Akt3 levels in WM115 cells (Akt2/3) and LNCaP cells (Akt1); endogenous in cells; host or cells: LNCaP (ECACC 89110211)
In short: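 Phospho-Thr308 Akt1 detected by AlphaScreen SureFire proximity beads in LNCaP lysates after 15 min compound treatment at 37 °C in 0.1% FBS medium, unstimulated, 0.3% DMSO. Cells plated at 5×10^4/well overnight; IC50 from a 4-parameter equation.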

T6 sequence (P31749 whole entry): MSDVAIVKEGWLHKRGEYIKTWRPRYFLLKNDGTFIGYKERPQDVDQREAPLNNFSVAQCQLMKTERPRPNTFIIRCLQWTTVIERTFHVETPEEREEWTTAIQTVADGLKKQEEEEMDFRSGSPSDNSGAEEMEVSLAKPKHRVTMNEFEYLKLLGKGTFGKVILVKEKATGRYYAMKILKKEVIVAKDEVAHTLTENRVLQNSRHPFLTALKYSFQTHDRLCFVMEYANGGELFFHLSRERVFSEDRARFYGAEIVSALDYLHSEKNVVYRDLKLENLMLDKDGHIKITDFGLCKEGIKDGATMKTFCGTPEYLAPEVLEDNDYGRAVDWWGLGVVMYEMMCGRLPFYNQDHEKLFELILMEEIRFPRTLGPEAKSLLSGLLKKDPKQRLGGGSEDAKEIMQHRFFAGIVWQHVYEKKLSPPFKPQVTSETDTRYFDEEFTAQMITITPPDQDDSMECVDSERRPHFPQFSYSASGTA
T1 sequence (P31749 whole entry): as above
T5 sequence (P31751 whole entry): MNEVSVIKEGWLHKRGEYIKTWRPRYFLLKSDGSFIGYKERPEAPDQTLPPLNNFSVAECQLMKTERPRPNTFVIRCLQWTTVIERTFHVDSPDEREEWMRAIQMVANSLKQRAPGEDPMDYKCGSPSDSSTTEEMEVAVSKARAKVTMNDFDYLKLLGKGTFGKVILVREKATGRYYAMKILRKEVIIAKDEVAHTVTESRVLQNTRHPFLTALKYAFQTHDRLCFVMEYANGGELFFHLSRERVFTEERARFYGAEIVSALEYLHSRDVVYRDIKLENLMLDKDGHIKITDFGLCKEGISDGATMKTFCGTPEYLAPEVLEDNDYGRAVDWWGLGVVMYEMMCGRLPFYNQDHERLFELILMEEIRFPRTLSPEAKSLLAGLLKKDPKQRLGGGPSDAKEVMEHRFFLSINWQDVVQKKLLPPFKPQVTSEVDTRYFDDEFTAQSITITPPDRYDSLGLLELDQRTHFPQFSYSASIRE
T3 sequence (P31751 whole entry): as above
T4 sequence (Q9Y243 whole entry): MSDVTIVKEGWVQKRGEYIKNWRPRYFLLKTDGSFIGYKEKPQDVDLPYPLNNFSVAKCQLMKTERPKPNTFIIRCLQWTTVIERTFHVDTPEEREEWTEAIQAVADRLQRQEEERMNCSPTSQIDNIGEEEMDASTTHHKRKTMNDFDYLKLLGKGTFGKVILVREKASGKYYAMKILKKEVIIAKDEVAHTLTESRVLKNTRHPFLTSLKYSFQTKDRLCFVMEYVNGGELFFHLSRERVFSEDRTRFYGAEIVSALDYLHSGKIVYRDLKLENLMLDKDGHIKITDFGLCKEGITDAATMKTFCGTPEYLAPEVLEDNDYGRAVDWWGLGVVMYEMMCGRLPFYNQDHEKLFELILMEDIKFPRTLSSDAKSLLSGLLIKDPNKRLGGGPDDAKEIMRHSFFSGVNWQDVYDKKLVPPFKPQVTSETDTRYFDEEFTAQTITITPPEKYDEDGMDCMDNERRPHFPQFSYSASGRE
T2 sequence (Q9Y243 whole entry): as above

Compound | IC50 [1] | IC50 [2] | IC50 [3] | IC50 [4] | IC50 [5] | IC50 [6]
CC(C)(N)c1ccc(-c2ncc(NC(=O)C[C@H]3CC[C@H](NC(=O)CC4CC4)CC3)cc2-c2ccccc2)cc1 [Example 29, N-(6-(4-(2-aminopropan-2-yl)phenyl)-5-phenylpyridin-3-yl)-2-(trans-4-(2-cyclopropylacetamido)cyclohexyl)acetamide] | > 33000 nM | 53 nM | 8400 nM | 170 nM | 2200 nM | > 13000 nM
CC(C)(N)c1ccc(-c2cnc(NC(=O)C[C@H]3CC[C@H](N4CCOC4=O)CC3)cc2-c2ccccc2)cc1 [Example 64, N-(5-(4-(2-aminopropan-2-yl)phenyl)-4-phenylpyridin-2-yl)-2-(trans-4-(2-oxooxazolidin-3-yl)cyclohexyl)acetamide] | > 30000 nM | 180 nM | 6600 nM | 210 nM | 2800 nM | > 30000 nM
CCC(=O)N(C)[C@H]1CC[C@H](CC(=O)Nc2cc(-c3ccsc3)c(-c3ccc([C@]4(N)C[C@H](F)C4)cc3)nn2)CC1 [Example 125] | > 30000 nM | 26 nM | 3000 nM | 22 nM | 1500 nM | > 30000 nM
CN(C(=O)C1CC1)[C@H]1CC[C@H](CC(=O)Nc2cnc(-c3ccc(C(C)(C)N)cc3)c(-c3ccsc3)c2)CC1 [Example 27, N-(trans-4-(2-((6-(4-(2-aminopropan-2-yl)phenyl)-5-(thiophen-3-yl)pyridin-3-yl)amino)-2-oxoethyl)cyclohexyl)-N-methylcyclopropanecarboxamide] | > 30000 nM | 680 nM | 10000 nM | 380 nM | 12000 nM | > 30000 nM
CCC(=O)N(C)[C@H]1CC[C@H](CC(=O)Nc2cc(-c3ccsc3)c(-c3ccc(C(C)(C)N)cc3)nn2)CC1 [Example 88, N-(trans-4-(2-((6-(4-(2-aminopropan-2-yl)phenyl)-5-(thiophen-3-yl)pyridazin-3-yl)amino)-2-oxoethyl)cyclohexyl)-N-methylpropionamide] | > 30000 nM | 64 nM | 16000 nM | 240 nM | 8600 nM | > 30000 nM
CC(=O)N(C(C)C)[C@H]1CC[C@H](CC(=O)Nc2cnc(-c3ccc([C@]4(N)C[C@](C)(O)C4)cc3)c(-c3ccccc3)c2)CC1 [Example 120, N-(6-(4-(trans-1-amino-3-hydroxy-3-methylcyclobutyl)phenyl)-5-phenylpyridin-3-yl)-2-(trans-4-(N-isopropylacetamido)cyclohexyl)acetamide] | 8600 nM | 7 nM | 350 nM | 15 nM | 65 nM | 1300 nM
CC(=O)N(C(C)C)[C@H]1CC[C@H](CC(=O)Nc2cc(-c3ccccc3)c(-c3ccc([C@]4(N)C[C@](C)(O)C4)cc3)nn2)CC1 [Example 100, N-(6-(4-(trans-1-amino-3-hydroxy-3-methylcyclobutyl)phenyl)-5-phenylpyridazin-3-yl)-2-(trans-4-(N-isopropylacetamido)cyclohexyl)acetamide] | 2400 nM | 8 nM | 1000 nM | 26 nM | 170 nM | 790 nM
CC(C)(N)c1ccc(-c2nnc(NC(=O)C[C@H]3CC[C@H](N4CCOC4=O)CC3)nc2-c2ccccc2)cc1 [Example 69, N-(6-(4-(2-aminopropan-2-yl)phenyl)-5-phenyl-1,2,4-triazin-3-yl)-2-(trans-4-(2-oxooxazolidin-3-yl)cyclohexyl)acetamide] | > 30000 nM | 1800 nM | > 30000 nM | 480 nM | > 30000 nM | > 30000 nM
CCC(=O)N(C)[C@H]1CC[C@H](CC(=O)Nc2cnc(-c3ccc([C@]4(N)C[C@](C)(O)C4)cc3)c(-c3ccccc3)c2)CC1 [Example 98, N-(4-(2-((6-(4-(trans-1-amino-3-hydroxy-3-methylcyclobutyl)phenyl)-5-phenylpyridin-3-yl)amino)-2-oxoethyl)cyclohexyl)-N-methylpropionamide] | 3500 nM | 5 nM | 470 nM | 7 nM | 53 nM | 880 nM

Further lines, results first:

IC50 [1] | IC50 [2] | IC50 [3] | IC50 [4] | IC50 [5] | IC50 [6] | Compound
> 30000 nM | 57 nM | 1200 nM | 81 nM | 1100 nM | 7100 nM | CC(=O)N(C)[C@H]1CC[C@H](CC(=O)Nc2cc(-c3ccccc3F)c(-c3ccc(C4(N)CCC4)cc3)cn2)CC1 [Example A62, N-(5-(4-(1-aminocyclobutyl)phenyl)-4-(2-fluorophenyl)pyridin-2-yl)-2-(trans-4-(N-methylacetamido)cyclohexyl)acetamide]
> 30000 nM | 170 nM | 3200 nM | 80 nM | 1800 nM | > 30000 nM | NC1(c2ccc(-c3ncc(NC(=O)C[C@H]4CC[C@H](N5CCCCC5=O)CC4)cc3-c3ccsc3)cc2)CCC1 [Example A14, N-(6-(4-(1-aminocyclobutyl)phenyl)-5-(thiophen-3-yl)pyridin-3-yl)-2-(trans-4-(2-oxopiperidin-1-yl)cyclohexyl)acetamide]
3900 nM | 4 nM | 370 nM | 10 nM | 63 nM | 1900 nM | CC(C)C(=O)N(C)[C@H]1CC[C@H](CC(=O)Nc2cc(-c3ccccc3)c(-c3ccc([C@]4(N)C[C@](C)(O)C4)cc3)nn2)CC1 [Example A79, N-(trans-4-(2-((6-(4-(trans-1-amino-3-hydroxy-3-methylcyclobutyl)phenyl)-5-phenylpyridazin-3-yl)amino)-2-oxoethyl)cyclohexyl)-N-methylisobutyramide]
11000 nM | 630 nM | 7600 nM | 440 nM | 2400 nM | > 30000 nM | COC(=O)N[C@H]1CC[C@H](CC(=O)Nc2cnc(-c3ccc(C4(N)CC(F)(F)C4)cc3)c(-c3ccccc3)c2)CC1 [Example A4, Methyl (trans-4-(2-((6-(4-(1-amino-3,3-difluorocyclobutyl)phenyl)-5-phenylpyridin-3-yl)amino)-2-oxoethyl)cyclohexyl)carbamate]
7500 nM | 15 nM | 1500 nM | 130 nM | 110 nM | 3400 nM | NC1(c2ccc(-c3cnc(NC(=O)C[C@H]4CC[C@H](N5CCCC5=O)CC4)cc3-c3ccccc3)cc2)CCC1 [Example A71, N-(5-(4-(1-aminocyclobutyl)phenyl)-4-phenylpyridin-2-yl)-2-(trans-4-(2-oxopyrrolidin-1-yl)cyclohexyl)acetamide]
8800 nM | 7 nM | 1200 nM | 77 nM | 130 nM | 2900 nM | CCOC(=O)N(C)[C@H]1CC[C@H](CC(=O)Nc2cc(-c3ccccc3)c(-c3ccc([C@]4(N)C[C@](C)(O)C4)cc3)cn2)CC1 [Example A73, Ethyl (trans-4-(2-((5-(4-(trans-1-amino-3-hydroxy-3-methylcyclobutyl)phenyl)-4-phenylpyridin-2-yl)amino)-2-oxoethyl)cyclohexyl)(methyl)carbamate]
> 30000 nM | 92 nM | 15000 nM | 180 nM | 10000 nM | > 30000 nM | CC(=O)N(C)[C@H]1CC[C@H](CC(=O)Nc2cc(-c3ccsc3)c(-c3ccc(C(C)(C)N)cc3)nn2)CC1 [Example A96, N-(6-(4-(2-aminopropan-2-yl)phenyl)-5-(thiophen-3-yl)pyridazin-3-yl)-2-(trans-4-(N-methylacetamido)cyclohexyl)acetamide]
